Reference: US20110152166A1, “METHOD OF MODULATION OF PROTEIN PHOSPHORYLATION-DEPENDENT CONFORMATIONAL TRANSITIONS WITH LOW MOLECULAR WEIGHT COMPOUNDS” (priority 2006, published 2011)
Ends that are not written are not given here.

Key:
[1] = target: T1, PDK1[Val127Leu] activation of SGK1 [Ser422Asp] (Homo sapiens, UniProt O15530, V127L); experiment: SGK activation by PDK1[Val127Leu] in vitro; format: biochemical; conditions: compound 60 μM
T1 construct: GST (N); made in house; host or cells: HEK293
Procedure: FIG. 4—Small compounds designed to bind the HM/PIF-pocket of PDK1 can block the PDK1-dependent phosphorylation and activation of substrates that require docking to the HM/PIF-pocket of PDK1. (A) Effect of compound 1 (100 and 200 μM) on PDK1 phosphorylation of its substrate S6K1. The phosphorylation reaction was performed in vitro with [γ^32P]ATP and then separated on SDS-PAGE followed by exposure to phosphorimager. The radioactive band corresponding to phosphorylated GST-56K1-T2[Thr412Glu] (S6K[412E]) is indicated. (B) PDK1 or PDK1[Val127Leu] (PDK1[V127L]) were pre-incubated with GST-[…]N-SGK1 [Ser422Asp] […] (C) The activity of S6K was measured in vitro after glutathione sepharose purification; aliquots of purified proteins were separated on SDS-PAGE and the level of activation loop phosphorylation was visualized by immunoblotting using phospho-specific antibodies that recognize the phosphorylated activation loop, followed by stripping of the membranes and re-probing with anti-GST to verify the presence of equal amounts of protein. (D) Cells overexpressing GST-56K1-T2[Thr412Glu] were treated as in (C) but S6K activity was measured in vitro after immunoprecipitation of the GST-fusion protein with anti-GST antibodies; the level of S6K expression was analysed by western-blotting of crude extracts. […]

[2] = target: T2, PDK1 (Homo sapiens, UniProt O15530); conditions: in the presence of PIFtide (Biondi et al., 2000); cited from earlier work
T2 sequence (O15530 1-556): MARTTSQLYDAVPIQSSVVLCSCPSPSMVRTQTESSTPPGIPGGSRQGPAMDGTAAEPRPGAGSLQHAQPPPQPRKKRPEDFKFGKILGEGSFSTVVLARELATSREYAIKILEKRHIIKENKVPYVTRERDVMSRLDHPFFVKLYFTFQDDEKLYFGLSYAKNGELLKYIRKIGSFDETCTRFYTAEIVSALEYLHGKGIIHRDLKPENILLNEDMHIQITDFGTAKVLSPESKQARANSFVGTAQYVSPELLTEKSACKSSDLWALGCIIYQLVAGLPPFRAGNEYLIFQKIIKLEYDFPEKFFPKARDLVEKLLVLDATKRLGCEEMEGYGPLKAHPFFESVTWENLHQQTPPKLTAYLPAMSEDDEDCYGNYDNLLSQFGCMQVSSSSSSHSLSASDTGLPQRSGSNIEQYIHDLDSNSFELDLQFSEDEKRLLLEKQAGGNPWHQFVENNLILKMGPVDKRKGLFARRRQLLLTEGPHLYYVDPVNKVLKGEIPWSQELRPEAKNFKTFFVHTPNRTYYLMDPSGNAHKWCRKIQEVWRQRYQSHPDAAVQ

[3] = target: T2, PDK1; experiment: PDK1 kinase activity with S6K tail peptides; format: biochemical
Procedure: FIG. 21 (A) Aliquots of S6K1 protein from bar 1, 2, 5 and 6 in FIG. 5B were subjected to immunoblotting with phosphorylation site specific Ab against the activation loop or anti-HA Ab. (B) The kinase activity of PKB<143-479, prephosphorylated by PDK1 in the activation loop, was determined in the presence of increasing concentrations of synthetic PRK2 tail peptides encompassing the HM, which were either nonphosphorylated (PIFtide) or phosphorylated at the tail site (pT958-PIFtide). […] (C) The kinase activity of purified PDK1 was determined in the presence of increasing concentrations of synthetic S6K tail peptide (residues 366-395) that was either phosphorylated at T389 (S371/pT389) or phosphorylated at both 5389 and 5371 (pS371/pT389). Kinase activity is expressed as percent, and data are means+/−SD of 3 independent experiments. (D) Synthetic S371/pT389 S6K tail peptide and pS371/pT389 S6K tail peptide were biotinylated and used to coat streptavidin Sensor Chips. PDK150-360 was injected at different concentrations (0.05-5.4 mM) onto the peptide coated chips. In the inserts, the kinetic constants were obtained by fitting the data to a hyperbola using kaleidagraph software. Representative results from one of several experiments are shown.

T1 sequence (O15530 whole entry V127L): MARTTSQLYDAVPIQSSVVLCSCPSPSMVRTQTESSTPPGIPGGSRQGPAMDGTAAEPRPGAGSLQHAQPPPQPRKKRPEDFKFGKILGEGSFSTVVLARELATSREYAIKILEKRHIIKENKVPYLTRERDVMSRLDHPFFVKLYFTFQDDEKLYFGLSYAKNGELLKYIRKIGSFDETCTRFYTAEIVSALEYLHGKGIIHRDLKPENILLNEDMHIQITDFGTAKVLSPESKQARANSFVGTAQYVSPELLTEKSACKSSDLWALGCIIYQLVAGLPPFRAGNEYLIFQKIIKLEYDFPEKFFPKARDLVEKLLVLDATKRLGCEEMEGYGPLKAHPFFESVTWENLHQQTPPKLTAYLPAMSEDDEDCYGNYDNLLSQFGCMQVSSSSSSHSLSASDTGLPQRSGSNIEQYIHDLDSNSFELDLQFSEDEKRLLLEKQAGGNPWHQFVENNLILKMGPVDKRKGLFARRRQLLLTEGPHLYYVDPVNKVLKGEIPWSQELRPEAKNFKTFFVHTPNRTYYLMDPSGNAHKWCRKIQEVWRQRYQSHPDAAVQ

For O=C(O)CSC(CC(=O)c1ccc(Cl)cc1)c1ccccc1 (stereo not drawn) [Compound 1], the “SGK activation by PDK1[Val127Leu] (in words)” value [1] was “not inhibited”.
For “REPRILSEEEQEMFRDFDYIADWC [PIFtide, reference compound]”, the “increase of PDK1 stability to temperature” value [2] is given as 10 °C.
For “S371/pT389: synthetic S6K1 tail peptide (residues 366-395) phosphorylated in the HM”, the “activation of PDK1 by tail peptide (in words)” value [3] was “activated to the same extent”.
